# Experimental data as given in US20060024264A1, “Antimicrobial copolymers and uses thereof” (priority 2004, published 2006).
# Tested on: E. coli
# Assay: Antimicrobial assays (MIC, cell growth by optical density at 595 nm)
# Assay type: cell-based
# Settings: Escherichia coli; incubation time 18 hours; 2-fold dilution series 500-3.9 μg/mL
# Description: Antimicrobial assays. Each polymer was dissolved in DMSO (5 mg/mL). […] The polymer solutions with E. coli were incubated at 36° C. for 18 hours, and cell growth was measured by optical density at λ=595 nm (Liu, D., et al., Angew. Chem. Int. Ed., 43:1158 (2004); Tew, G. N., et al., PNAS 99:5110 (2002)).
smiles,measurement,value
"C=C(C)C(=O)OCCN.Cl [Monomer, 2-aminoethyl methacrylate hydrochloride]",MIC,> 500 µg/mL
